Results as given in US20230024302A1, “2,3,5-TRISUBSTITUTED PYRAZOLO[1,5-A]PYRIMIDINE COMPOUNDS” (Arcus Biosciences, Inc., priority 2019, published 2023).

Experiments:
PI3Kγ = molecular target: T1, PI3Kγ (Homo sapiens, UniProt P48736); test: PI3Kγ cellular assay in THP-1 cells (AKT pS473 AlphaLISA); format: cell-based; details: Table 2, rhMCP-1 stimulated AKT pS473, read-out: cellular potency (PI3Kγ IC50)
T1 construct: host or cells: THP-1
Method in brief: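 Serum-starved THP-1 cells (1.8×10^5/well, serum-free DMEM) treated with compounds from 4 nM to 30 μM in 2% DMSO, then stimulated and lysed.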

PI3Kγ (p120γ) = molecular target: T2, PI3Kγ (p120γ) (Homo sapiens, UniProt P48736); test: Inhibition of PI3K kinase activity (ADP Glo), PI3Kγ; details: Table 2, p120γ, read-out: biochemical potency (PI3Kγ IC50)
T2 construct: purchased Promega V1761
Method in brief: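 Recombinant p120γ (8 nM, 2× stock) was preincubated with compound for 1 h at rt in HEPES pH 7.4, NaCl, MgCl2 and 0.05% BSA. Reaction was started with PIP2 (0.1 mg/ml, 2×) and ATP (50 μM, 2×) and ran 60 min at rt. ADP formed was read by ADP-Glo luminescence, and IC50 came from a 4-parameter fit.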

T2 sequence (P48736 whole entry): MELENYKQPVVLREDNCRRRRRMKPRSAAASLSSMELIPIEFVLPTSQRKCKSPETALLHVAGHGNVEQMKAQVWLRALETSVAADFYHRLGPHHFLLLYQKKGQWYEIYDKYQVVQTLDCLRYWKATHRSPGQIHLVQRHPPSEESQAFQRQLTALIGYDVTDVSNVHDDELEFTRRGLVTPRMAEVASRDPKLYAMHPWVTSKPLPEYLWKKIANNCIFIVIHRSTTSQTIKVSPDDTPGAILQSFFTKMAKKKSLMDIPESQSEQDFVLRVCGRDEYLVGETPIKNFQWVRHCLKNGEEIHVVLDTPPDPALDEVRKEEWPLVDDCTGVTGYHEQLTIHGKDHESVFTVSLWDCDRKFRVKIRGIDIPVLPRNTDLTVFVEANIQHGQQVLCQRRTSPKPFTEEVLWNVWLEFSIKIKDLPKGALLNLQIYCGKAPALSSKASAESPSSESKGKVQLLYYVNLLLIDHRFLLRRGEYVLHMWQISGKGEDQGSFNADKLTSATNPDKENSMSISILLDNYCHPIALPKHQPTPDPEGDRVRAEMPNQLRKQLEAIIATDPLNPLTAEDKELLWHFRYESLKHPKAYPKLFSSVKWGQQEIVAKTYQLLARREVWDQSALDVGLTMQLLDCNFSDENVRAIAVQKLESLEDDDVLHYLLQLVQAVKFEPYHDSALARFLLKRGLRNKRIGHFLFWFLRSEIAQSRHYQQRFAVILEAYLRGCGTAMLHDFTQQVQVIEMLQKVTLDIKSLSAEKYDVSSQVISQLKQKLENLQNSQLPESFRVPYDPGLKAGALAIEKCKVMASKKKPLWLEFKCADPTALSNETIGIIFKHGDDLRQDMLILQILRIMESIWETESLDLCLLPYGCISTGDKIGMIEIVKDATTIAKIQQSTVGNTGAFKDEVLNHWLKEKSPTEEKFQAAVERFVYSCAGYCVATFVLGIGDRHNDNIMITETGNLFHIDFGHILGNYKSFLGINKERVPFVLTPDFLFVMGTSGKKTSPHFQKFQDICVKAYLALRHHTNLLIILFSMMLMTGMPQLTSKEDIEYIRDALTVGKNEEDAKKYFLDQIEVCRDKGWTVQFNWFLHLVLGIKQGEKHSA
T1 sequence (P48736 whole entry): as above

IC50 (PI3Kγ) [µM]	IC50 (PI3Kγ (p120γ)) [µM]	Compound
0.1 to 1	< 0.1	Cc1cc(-c2ccn3nc(N)c(C(=O)NC[C@@H]4CCC(=O)N4)c3n2)cc2c1C(=O)N([C@@H](C)C1CC1)C2 [Example 271]
> 1	< 0.1	Cc1cc(-c2ccn3nc(N)c(C(=O)N[C@H]4c5ccccc5C[C@@H]4O)c3n2)cc2c1C(=O)N([C@@H](C)C1CC1)C2 [Example 272]
0.1 to 1	< 0.1	Cc1cc(-c2ccn3nc(N)c(C(=O)N[C@H]4CC[C@@H](N)CC4)c3n2)cc2c1C(=O)N([C@@H](C)C1CC1)C2 [Example 273]
0.1 to 1	< 0.1	Cc1cc(-c2ccn3nc(N)c(C(=O)N4CCC4CO)c3n2)cc2c1C(=O)N(C(C)C1CC1)C2 (centres unmarked) [Example 274]
0.1 to 1	< 0.1	Cc1cc(-c2ccn3nc(N)c(C(=O)N[C@H]4CCCC[C@H]4O)c3n2)cc2c1C(=O)N([C@@H](C)C1CC1)C2 [Example 275]
0.1 to 1	< 0.1	Cc1cc(-c2ccn3nc(N)c(C(=O)NC[C@H]4CNC(=O)C4)c3n2)cc2c1C(=O)N([C@@H](C)C1CC1)C2 [Example 276]
0.1 to 1	< 0.1	Cc1cc(-c2ccn3nc(N)c(C(=O)NC4CC45CC5)c3n2)cc2c1C(=O)N([C@@H](C)C1CC1)C2 (some centres unmarked) [Example 277]
> 1	< 0.1	Cc1cc(-c2ccn3nc(N)c(C(=O)N[C@H](C)C4CC4)c3n2)cc2c1C(=O)N([C@@H](C)C1CC1)C2 [Example 278]
> 1	< 0.1	Cc1cc(-c2ccn3nc(N)c(C(=O)NCC(=O)Nc4ccccc4)c3n2)cc2c1C(=O)N([C@@H](C)C1CC1)C2 [Example 279]
> 1	< 0.1	Cc1cc(-c2ccn3nc(N)c(C(=O)N4CCOCC4)c3n2)cc2c1C(=O)N(C(C)C1CC1)C2 (centres unmarked) [Example 280]
> 1	< 0.1	Cc1cc(-c2ccn3nc(N)c(C(=O)NC4(c5ccccc5)CC4)c3n2)cc2c1C(=O)N([C@@H](C)C1CC1)C2 [Example 281]
0.1 to 1	< 0.1	Cc1cc(-c2ccn3nc(N)c(C(=O)N[C@@H]4CCNC4=O)c3n2)cc2c1C(=O)N([C@@H](C)C1CC1)C2 [Example 283]
> 1	< 0.1	Cc1cc(-c2ccn3nc(N)c(C(=O)N[C@H]4c5ccccc5C[C@H]4O)c3n2)cc2c1C(=O)N([C@@H](C)C1CC1)C2 [Example 284]
> 1	< 0.1	Cc1cc(-c2ccn3nc(N)c(C(=O)N[C@@H]4CCOc5ccccc54)c3n2)cc2c1C(=O)N([C@@H](C)C1CC1)C2 [Example 285]
> 1	0.1 to 1	Cc1cc(-c2ccn3nc(N)c(C(=O)N[C@H](C(N)=O)c4ccccc4)c3n2)cc2c1C(=O)N([C@@H](C)C1CC1)C2 [Example 286]
0.1 to 1	0.1 to 1	Cc1cc(-c2ccn3nc(N)c(C(=O)NC(C)C4COC4)c3n2)cc2c1C(=O)N([C@@H](C)C1CC1)C2 (some centres unmarked) [Example 287]
> 1	0.1 to 1	Cc1cc(-c2ccn3nc(N)c(C(=O)N4CCCC4CO)c3n2)cc2c1C(=O)N(C(C)C1CC1)C2 (centres unmarked) [Example 288]
> 1	0.1 to 1	Cc1cc(-c2ccn3nc(N)c(C(=O)N4CCCC4CO)c3n2)cc2c1C(=O)N(C(C)C1CC1)C2 (centres unmarked) [Example 289]
> 1	0.1 to 1	Cc1cc(-c2ccn3nc(N)c(C(=O)N[C@@H](C)C4CCNCC4)c3n2)cc2c1C(=O)N([C@@H](C)C1CC1)C2 [Example 290]
> 1	> 1	Cc1cc(-c2ccn3nc(N)c(C(=O)N4CCN(C)CC4)c3n2)cc2c1C(=O)N(C(C)C1CC1)C2 (centres unmarked) [Example 291]
0.1 to 1	< 0.1	Cc1cc(-c2ccn3nc(N)c(C(=O)Nc4cn(C)nc4C)c3n2)cc2c1C(=O)N([C@@H](C)C1CC1)C2 [Example 292]
0.1 to 1	< 0.1	Cc1cc(NC(=O)c2c(N)nn3ccc(-c4cc(C)c5c(c4)CN([C@@H](C)C4CC4)C5=O)nc23)ccc1C(=O)O [Example 293]
0.1 to 1	< 0.1	Cc1cc(-c2ccn3nc(N)c(C(=O)Nc4cnn(C5CC5)c4)c3n2)cc2c1C(=O)N([C@@H](C)C1CC1)C2 [Example 294]
0.1 to 1	< 0.1	CCn1cc(NC(=O)c2c(N)nn3ccc(-c4cc(C)c5c(c4)CN([C@@H](C)C4CC4)C5=O)nc23)cn1 [Example 295]
0.1 to 1	< 0.1	Cc1cc(-c2ccn3nc(N)c(C(=O)Nc4cnn(C)c4F)c3n2)cc2c1C(=O)N([C@@H](C)C1CC1)C2 [Example 296]
0.1 to 1	< 0.1	Cc1cc(NC(=O)c2c(N)nn3ccc(-c4cc(C)c5c(c4)CN([C@@H](C)C4CC4)C5=O)nc23)ccn1 [Example 297]
> 1	< 0.1	Cc1cc(-c2ccn3nc(N)c(C(=O)Nc4ccccc4)c3n2)cc2c1C(=O)N([C@@H](C)C1CC1)C2 [Example 298]
> 1	< 0.1	Cc1cc(-c2ccn3nc(N)c(C(=O)Nc4ccc(Cl)cc4)c3n2)cc2c1C(=O)N([C@@H](C)C1CC1)C2 [Example 299]

IC50 (PI3Kγ) [µM]	IC50 (PI3Kγ (p120γ)) [µM]	Compound
> 1	< 0.1	Cc1csc(NC(=O)c2c(N)nn3ccc(-c4cc(C)c5c(c4)CN([C@@H](C)C4CC4)C5=O)nc23)n1 [Example 300]
0.1 to 1	< 0.1	Cc1cc(-c2ccn3nc(N)c(C(=O)NC4CC4)c3n2)cc2c1C(=O)N([C@@H](C1CC1)C(F)(F)F)C2 [Example 301]
0.1 to 1	< 0.1	CC[C@H](C)N1Cc2cc(-c3ccn4nc(N)c(C(=O)NC5CC5)c4n3)cc(C)c2C1=O [Example 302]
0.1 to 1	< 0.1	Cc1cc(-c2ccn3nc(N)c(C(=O)NC4CC4)c3n2)cc2c1C(=O)N(C1CC1)C2 [Example 303]
0.1 to 1	< 0.1	Cc1cc(-c2ccn3nc(N)c(C(=O)NC4CC4)c3n2)cc2c1C(=O)N(C(C)C)C2 [Example 304]
0.1 to 1	< 0.1	CCN1Cc2cc(-c3ccn4nc(N)c(C(=O)NC5CC5)c4n3)cc(C)c2C1=O [Example 305]
0.1 to 1	< 0.1	CC[C@@H](C)N1Cc2cc(-c3ccn4nc(N)c(C(=O)NC5CC5)c4n3)cc(C)c2C1=O [Example 306]
0.1 to 1	< 0.1	Cc1cc(-c2ccn3nc(N)c(C(=O)NC4CC4)c3n2)cc2c1C(=O)N(CC1CC1)C2 [Example 307]
0.1 to 1	< 0.1	CC[C@H](CO)N1Cc2cc(-c3ccn4nc(N)c(C(=O)NC5CC5)c4n3)cc(C)c2C1=O [Example 308]
0.1 to 1	< 0.1	CC[C@@H](CO)N1Cc2cc(-c3ccn4nc(N)c(C(=O)NC5CC5)c4n3)cc(C)c2C1=O [Example 309]
0.1 to 1	< 0.1	Cc1cc(-c2ccn3nc(N)c(C(=O)NC4CC4)c3n2)cc2c1C(=O)N([C@H](CO)C1CC1)C2 [Example 310]
0.1 to 1	< 0.1	Cc1cc(-c2ccn3nc(N)c(C(=O)NC4CC4)c3n2)cc2c1C(=O)N([C@@H](CO)C1CC1)C2 [Example 311]
0.1 to 1	< 0.1	Cc1cc(-c2ccn3nc(N)c(C(=O)N[C@@H](CO)C4CC4)c3n2)cc2c1C(=O)N(C(C)(C)CO)C2 [Example 312]
0.1 to 1	< 0.1	Cc1cc(-c2ccn3nc(N)c(C(=O)N[C@@H](C)c4ccccc4F)c3n2)cc2c1C(=O)N(C(C)(C)CO)C2 [Example 313]
0.1 to 1	< 0.1	Cc1cc(-c2ccn3nc(N)c(C(=O)NC4(C)COC4)c3n2)cc2c1C(=O)N(C(C)(C)CO)C2 [Example 314]
0.1 to 1	< 0.1	Cc1cc(-c2ccn3nc(N)c(C(=O)NC4COC4)c3n2)cc2c1C(=O)N(C(C)(C)CO)C2 [Example 315]
0.1 to 1	< 0.1	Cc1cc(-c2ccn3nc(N)c(C(=O)NC4CC4)c3n2)cc2c1C(=O)N(C(C)(C)CO)C2 [Example 316]
> 1	< 0.1	Cc1cc(-c2ccn3nc(N)c(C(=O)N[C@H](C)c4ccccc4F)c3n2)cc2c1C(=O)N(C(C)(C)CO)C2 [Example 317]
0.1 to 1	< 0.1	Cc1cc(-c2ccn3nc(N)c(C(=O)NC4(C)COC4)c3n2)cc2c1C(=O)N(CC(C)(C)O)C2 [Example 318]
0.1 to 1	< 0.1	Cc1cc(-c2ccn3nc(N)c(C(=O)NC4CC4)c3n2)cc2c1C(=O)N(CC(C)(C)O)C2 [Example 319]
0.1 to 1	< 0.1	Cc1cc(-c2ccn3nc(N)c(C(=O)NC4COC4)c3n2)cc2c1C(=O)N(CC(C)(C)O)C2 [Example 320]
0.1 to 1	< 0.1	Cc1cc(-c2ccn3nc(N)c(C(=O)N[C@@H](CO)C4CC4)c3n2)cc2c1C(=O)N(CC(C)(C)O)C2 [Example 321]
0.1 to 1	< 0.1	Cc1cc(-c2ccn3nc(N)c(C(=O)NC4CC4)c3n2)cc2c1C(=O)N([C@H]1CC[C@@H](O)C1)C2 [Example 322]
0.1 to 1	< 0.1	Cc1cc(-c2ccn3nc(N)c(C(=O)NC4CC4)c3n2)cc2c1C(=O)N([C@H]1CC[C@H](O)C1)C2 [Example 323]
0.1 to 1	< 0.1	Cc1cc(-c2ccn3nc(N)c(C(=O)NC4CC4)c3n2)cc2c1C(=O)N([C@@H]1CCC[C@H](O)C1)C2 [Example 324]
> 1	< 0.1	Cc1cc(-c2ccn3nc(N)c(C(=O)NC(C)CO)c3n2)cc2c1C(=O)N([C@@H]1CCC[C@@H](O)C1)C2 (some centres unmarked) [Example 325]
> 1	< 0.1	Cc1cc(-c2ccn3nc(N)c(C(=O)NC(C)CO)c3n2)cc2c1C(=O)N([C@@H]1CCC[C@H](O)C1)C2 (some centres unmarked) [Example 326]
